For the experiment, the target named is T1, full-length SHP2 (His6-tagged SHP2(2-527)) (Homo sapiens, UniProt Q06124).
T1 construct: His6-tagged SHP2(2-527); His6; made in house; host or cells: E. coli
T1 sequence (Q06124 2-527): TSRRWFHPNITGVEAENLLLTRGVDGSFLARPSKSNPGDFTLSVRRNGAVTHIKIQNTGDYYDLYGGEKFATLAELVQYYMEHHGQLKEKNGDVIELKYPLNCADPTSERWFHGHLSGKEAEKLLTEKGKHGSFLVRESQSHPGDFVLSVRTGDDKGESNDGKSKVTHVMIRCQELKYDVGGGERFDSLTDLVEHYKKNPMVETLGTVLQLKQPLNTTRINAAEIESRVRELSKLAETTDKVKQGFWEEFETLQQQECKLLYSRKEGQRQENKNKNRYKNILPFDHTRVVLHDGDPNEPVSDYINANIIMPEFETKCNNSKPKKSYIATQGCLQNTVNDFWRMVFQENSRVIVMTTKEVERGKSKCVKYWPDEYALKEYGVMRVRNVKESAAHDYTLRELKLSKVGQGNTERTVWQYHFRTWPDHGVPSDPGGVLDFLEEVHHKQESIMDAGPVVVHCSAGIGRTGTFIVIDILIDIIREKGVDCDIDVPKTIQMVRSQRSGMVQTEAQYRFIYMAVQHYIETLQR
Briefly: SHP2 Enzymatic Assay (fluorescence intensity kinetic assay, DiFMUP hydrolysis). In kind it is biochemical. The procedure, abridged: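 1 nM His6-SHP2(2-527), activated by 1 μM bis-phosphopeptide, hydrolysed 50 μM DiFMUP in 25 mM HEPES pH 7.4 with 1 mM DTT, 50 mM KCl and 2% DMSO. DiFMU fluorescence (Ex 355/Em 460 nm) was read kinetically for 15 min at ambient temperature.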
`C[C@@H]1OCC2(CCN(c3cnc4nc(Sc5ccncc5F)ccc4n3)CC2)[C@@H]1N` [Example 186, (3S,4S)-8-(6-((3-fluoropyridin-4-yl)thio)pyrido[2,3-b]pyrazin-2-yl)-3-methyl-2-oxa-8-azaspiro[4.5]decan-4-amine] gave an IC50 of 2310 nM.
The figure for `C[C@@H]1OCC2(CCN(c3cnc4nc(Sc5ccncc5Cl)ccc4n3)CC2)[C@@H]1N` [Example 187, (3S,4S)-8-(6-((3-chloropyridin-4-yl)thio)pyrido[2,3-b]pyrazin-2-yl)-3-methyl-2-oxa-8-azaspiro[4.5]decan-4-amine] is 261 nM.
The value for `C[C@@H]1OCC2(CCN(c3cnc4nc(Sc5ccncc5C(F)(F)F)ccc4n3)CC2)[C@@H]1N` [Example 188, (3S,4S)-3-methyl-8-(6-((3-(trifluoromethyl)pyridin-4-yl)thio)pyrido[2,3-b]pyrazin-2-yl)-2-oxa-8-azaspiro[4.5]decan-4-amine] was 151 nM; that for `C[C@@H]1OCC2(CCN(c3cnc4nc(Sc5ccnc(C(F)(F)F)c5)ccc4n3)CC2)[C@@H]1N` [Example 190, (3S,4S)-3-methyl-8-(6-((2-(trifluoromethyl)pyridin-4-yl)thio)pyrido[2,3-b]pyrazin-2-yl)-2-oxa-8-azaspiro[4.5]decan-4-amine] was 3650 nM.
The value for `C[C@@H]1OCC2(CCN(c3cnc4nc(Sc5ccnc6c5ccn6C)ccc4n3)CC2)[C@@H]1N` [Example 191, (3S,4S)-3-methyl-8-(6-((1-methyl-1H-pyrrolo[2,3-b]pyridin-4-yl)thio)pyrido[2,3-b]pyrazin-2-yl)-2-oxa-8-azaspiro[4.5]decan-4-amine] was 134 nM; that for `C[C@@H]1OCC2(CCN(c3cnc4nc(Sc5c(Cl)cnc6[nH]ccc56)ccc4n3)CC2)[C@@H]1N` [Example 192, (3S,4S)-8-(6-((5-chloro-1H-pyrrolo[2,3-b]pyridin-4-yl)thio)pyrido[2,3-b]pyrazin-2-yl)-3-methyl-2-oxa-8-azaspiro[4.5]decan-4-amine] was 45 nM.
In turn, `C[C@@H]1OCC2(CCN(c3cnc4nc(Sc5c(C(F)(F)F)cnc6[nH]ccc56)ccc4n3)CC2)[C@@H]1N` [Example 193, (3S,4S)-3-methyl-8-(6-((5-(trifluoromethyl)-1H-pyrrolo[2,3-b]pyridin-4-yl)thio)pyrido[2,3-b]pyrazin-2-yl)-2-oxa-8-azaspiro[4.5]decan-4-amine] registered an IC50 of 138 nM. Against the preceding compound, the IC50 is about 3.1-fold higher.
The value for `COCCNc1nccc(Sc2ccc3nc(N4CCC(C)(N)CC4)cnc3n2)c1Cl` [Example 194, 4-((2-(4-amino-4-methylpiperidin-1-yl)pyrido[2,3-b]pyrazin-6-yl)thio)-3-chloro-N-(2-methoxyethyl)pyridin-2-amine] was 238 nM.
The figure for `COCCCNc1nccc(Sc2ccc3nc(N4CCC(C)(N)CC4)cnc3n2)c1Cl` [Example 195, 4-((2-(4-amino-4-methylpiperidin-1-yl)pyrido[2,3-b]pyrazin-6-yl)thio)-3-chloro-N-(3-methoxypropyl)pyridin-2-amine] is 506 nM; for `CC1(N)CCN(c2cnc3nc(Sc4ccnc5c4CCN5)ccc3n2)CC1` [Example 196, 1-(6-((2,3-dihydro-1H-pyrrolo[2,3-b]pyridin-4-yl)thio)pyrido[2,3-b]pyrazin-2-yl)-4-methylpiperidin-4-amine] it is 563 nM; for `CC1(N)CCN(c2cnc3nc(Sc4ccnc5ncccc45)ccc3n2)CC1` [Example 197, 1-(6-((1,8-naphthyridin-4-yl)thio)pyrido[2,3-b]pyrazin-2-yl)-4-methylpiperidin-4-amine] it is 1510 nM.
The value for `Nc1nccc(Sc2ccc3nc(N4CCC(O)(CO)CC4)cnc3n2)c1Cl` [Example 198, 1-(6-((2-amino-3-chloropyridin-4-yl)thio)pyrido[2,3-b]pyrazin-2-yl)-4-(hydroxymethyl)piperidin-4-ol] was 3990 nM.
`Nc1nccc(Sc2ccc3nc(N4C[C@H]5CC[C@@H](C4)[C@@H]5N)cnc3n2)c1Cl` [Example 199, (1R,5S,8s)-3-(6-((2-amino-3-chloropyridin-4-yl)thio)pyrido[2,3-b]pyrazin-2-yl)-3-azabicyclo[3.2.1]octan-8-amine]: 344 nM corresponded to half-maximal inhibition (IC50).
The value for `Nc1nccc(Sc2ccc3nc(N4CC5CCC(C4)N5)cnc3n2)c1Cl` [Example 201, 4-((2-(3,8-diazabicyclo[3.2.1]octan-3-yl)pyrido[2,3-b]pyrazin-6-yl)thio)-3-chloropyridin-2-amine] was 130 nM; that for `Nc1nccc(Sc2ccc3nc(N4CC5CCC4CNC5)cnc3n2)c1Cl` (centres unmarked) [Example 202, 4-((2-(3,6-diazabicyclo[3.2.2]nonan-6-yl)pyrido[2,3-b]pyrazin-6-yl)thio)-3-chloropyridin-2-amine] was 132 nM; that for `Nc1nccc(Sc2ccc3nc(N4C[C@@H]5C[C@H]4CN5)cnc3n2)c1Cl` [Example 203, 4-((2-((1S,4S)-2,5-diazabicyclo[2.2.1]heptan-2-yl)pyrido[2,3-b]pyrazin-6-yl)thio)-3-chloropyridin-2-amine] was 142 nM.
The compound `Nc1nccc(Sc2ccc3nc(N4C5CCC4CNC5)cnc3n2)c1Cl` [Example 204, 4-((2-(3,8-diazabicyclo[3.2.1]octan-8-yl)pyrido[2,3-b]pyrazin-6-yl)thio)-3-chloropyridin-2-amine] had an IC50 of 47 nM. This IC50 is about 3-fold lower than that of the compound before.
For the compound `Nc1nccc(Sc2ccc3nc(N4C5CNCC4C5)cnc3n2)c1Cl` [Example 205], the IC50 came to 114 nM.
The figure for `Nc1nccc(Sc2ccc3nc(N4CC5CNCC(C4)O5)cnc3n2)c1Cl` [Example 206, 4-((2-(9-oxa-3,7-diazabicyclo[3.3.1]nonan-3-yl)pyrido[2,3-b]pyrazin-6-yl)thio)-3-chloropyridin-2-amine] is 2030 nM.
The figure for `Nc1nccc(Sc2ccc3nc(N4CC5COCC(C4)N5)cnc3n2)c1Cl` [Example 207, 4-((2-(3-oxa-7,9-diazabicyclo[3.3.1]nonan-7-yl)pyrido[2,3-b]pyrazin-6-yl)thio)-3-chloropyridin-2-amine] is 730 nM.
The value for `Nc1nccc(Sc2ccc3nc(N4C[C@@H]5CC[C@H]4CN5)cnc3n2)c1Cl` [Example 208, 4-((2-((1S,4S)-2,5-diazabicyclo[2.2.2]octan-2-yl)pyrido[2,3-b]pyrazin-6-yl)thio)-3-chloropyridin-2-amine] was 67 nM.
Turning to `N[C@@H]1c2cccnc2CC12CCN(c1cnc3nc(Sc4ccnc(N5CCC(O)CC5)c4Cl)ccc3n1)CC2` [Example 209, (S)-1-(4-((2-(5-amino-5,7-dihydrospiro[cyclopenta[b]pyridine-6,4′-piperidin]-1′-yl)pyrido[2,3-b]pyrazin-6-yl)thio)-3-chloropyridin-2-yl)piperidin-4-ol], the IC50 was 40 nM.
The value for `NCC1(F)CCN(c2cnc3nc(Sc4ccnc(N)c4Cl)ccc3n2)CC1` [Example 211, 4-((2-(4-(aminomethyl)-4-fluoropiperidin-1-yl)pyrido[2,3-b]pyrazin-6-yl)thio)-3-chloropyridin-2-amine] was 54 nM; that for `NCC1(F)CCN(c2cnc3nc(Sc4cccc(Cl)c4Cl)ccc3n2)CC1` [Example 212, (1-(6-((2,3-dichlorophenyl)thio)pyrido[2,3-b]pyrazin-2-yl)-4-fluoropiperidin-4-yl)methanamine] was 197 nM; that for `Nc1nccc(Sc2ccc3nc(N4[C@@H]5CC[C@H]4[C@@H](N)C5)cnc3n2)c1Cl` [Example 213, (1S,2S,4R)-7-(6-((2-amino-3-chloropyridin-4-yl)thio)pyrido[2,3-b]pyrazin-2-yl)-7-azabicyclo[2.2.1]heptan-2-amine] was 112 nM.
In the case of `C[C@@H]1OCC2(CCN(c3cnc4nc(Sc5ccnc6[nH]ncc56)ccc4n3)CC2)[C@@H]1N` [Example 214, (3S,4S)-8-(6-((1H-pyrazolo[3,4-b]pyridin-4-yl)thio)pyrido[2,3-b]pyrazin-2-yl)-3-methyl-2-oxa-8-azaspiro[4.5]decan-4-amine], the IC50 was found to be 304 nM. This IC50 lies about 2.7-fold higher than the previous one.
The figure for `Nc1nccc(Sc2ccc3nc(N4CCO[C@@H]5CNC[C@H]54)cnc3n2)c1Cl` [Example 215, 3-chloro-4-((2-((4aR,7aR)-hexahydropyrrolo[3,4-b][1,4]oxazin-4(4aH)-yl)pyrido[2,3-b]pyrazin-6-yl)thio)235yridine-2-amine] is 780 nM; for `C[C@H]1CC[C@H](N)CN1c1cnc2nc(Sc3ccnc(N)c3Cl)ccc2n1` [Example 216, 4-((2-((2S,5S)-5-amino-2-methylpiperidin-1-yl)pyrido[2,3-b]pyrazin-6-yl)thio)-3-chloropyridin-2-amine] it is 3080 nM.
The figure for `C[C@@H]1OCC2(CCN(c3cnc4nc(Sc5ncnc(N)c5Cl)ccc4n3)CC2)[C@@H]1N` [Example 217, (3S,4S)-8-(6-((6-amino-5-chloropyrimidin-4-yl)thio)pyrido[2,3-b]pyrazin-2-yl)-3-methyl-2-oxa-8-azaspiro[4.5]decan-4-amine] is 845 nM; for `COc1ccc2c(c1)[C@@H](N)C1(CCN(c3cnc4nc(Sc5ccnc(N)c5Cl)ccc4n3)CC1)C2` [Example 219, (S)-1′-(6-((2-amino-3-chloropyridin-4-yl)thio)pyrido[2,3-b]pyrazin-2-yl)-6-methoxy-1,3-dihydrospiro[indene-2,4′-piperidin]-1-amine] it is 4190 nM; for `Nc1nccc(Sc2ccc3nc(N4CCC5(CC4)Cc4c(Cl)cccc4[C@@H]5N)cnc3n2)c1Cl` [Example 220, (R)-1′-(6-((2-amino-3-chloropyridin-4-yl)thio)pyrido[2,3-b]pyrazin-2-yl)-4-chloro-1,3-dihydrospiro[indene-2,4′-piperidin]-1-amine] it is 96 nM.
Compound `C[C@@H]1OCC2(CCN(c3cnc4nc(Sc5cccnc5C(F)(F)F)ccc4n3)CC2)[C@@H]1N` [Example 221, (3S,4S)-3-methyl-8-(6-((2-(trifluoromethyl)pyridin-3-yl)thio)pyrido[2,3-b]pyrazin-2-yl)-2-oxa-8-azaspiro[4.5]decan-4-amine] registered an IC50 of 183 nM.

As usually defined, the IC50 is the concentration that inhibits the measured activity by half. A high value points to weaker potency.

The values above are taken from patent publication US12187721B2, “Protein tyrosine phosphatase inhibitors” (Array BioPharma Inc., priority 2018, dated 2025).
